In EP1351977B1, “ANTIMICROBIAL PSEUDOPEPTIDES” (INSTITUT NATIONAL DE LA RECHERCHE AGRONOMIQUE (INRA), priority 2001, dated 2004):
Ends that are not written are not given here.

Legend:
Assay in all cases: Bacterial growth inhibition test in Petri dish (solid medium), MIC
Type in all cases: cell-based
Settings in all cases: MIC extrapolated from inhibition diameter vs log10 concentration
[1] = tested on: Serratia entomophila
[2] = tested on: Escherichia coli CIP548
[3] = tested on: Klebsiella pneumoniae
[4] = tested on: Pseudomonas fluorescens
[5] = tested on: Proteus vulgaris CIP58.60
[6] = tested on: Bacillus megaterium
[7] = tested on: Salmonella sp.
Experimental: Deux tests ont été utilisés pour mesurer l'activité antibactérienne des pseudopeptides, un test d'inhibition de la croissance bactérienne en microplaques (de 96 puits) en milieu liquide et un test d'inhibition de la croissance bactérienne en boîte de Pétri en milieu solide. • * Test en microplaques: La culture bactérienne à tester est prélevée en phase exponentielle, puis diluée au 1/500^ème dans du milieu liquide TSB frais. Chaque puits de la microplaque est rempli avec 100 µl de suspension bactérienne diluée. Dans le premier puits, 100 µl de l'échantillon de pseudopeptide à tester est ajouté à la suspension bactérienne, puis l'échantillon est dilué de 2 en 2 en transférant d'un puits à l'autre 100 µl de suspension. La lecture de la microplaque se fait en mesurant la densité optique à […] (DO600nm) après 24h d'incubation à 28°C ou 37°C selon les bactéries cibles. Connaissant la concentration en pseudopeptide de l'échantillon de départ, ce test permet de déterminer la valeur de la CMI (Concentration Minimale d'Inhibition de la croissance bactérienne). Dans ce test, la CMI correspond à la concentration de l'échantillon pour lequel la DO600nm est inférieure à celle du témoin de culture. • * Test en boîte de Pétri: La culture bactérienne à tester est prélevée en phase exponentielle, puis incorporée à 10 ml d'une gélose dite "sous-couche" (Agarose 1% poids/vol; NaCl 100 mM; Trypcase 0.03 % poids/vol; Tampon phosphate 10 mM pH7.4) à raison de 2.10^5 bactéries/ml. Le mélange est coulé dans une boîte de Pétri ordinaire. 9 puits d'environ 10 µl de volume sont formés dans la "sous-couche" à l'aide d'un embout de pipette stérile de 10 ml. Ces puits sont remplis avec une série de dilutions des pseudopeptides à tester (concentration initiale 500 µg/ml, et dilution de deux en deux jusqu'à 1,95 µg/ml). Après diffusion à température ambiante pendant 2h, une gélose dite "sur-couche" (Agarose 1% wt/vol; Trypcase 6 % wt/vol; Tampon phosphate 10 mM pH7.4) est ajoutée sur la sous-couche à raison de 5 à 10 ml. Après solidification, l'ensemble est mis à incuber pendant une nuit. Le diamètre d'inhibition de la culture bactérienne autour de chaque puits est mesuré en mm; il existe une relation linéaire entre le diamètre d'inhibition et le log10 de la concentration en pseudopeptide qui permet de déterminer par extrapolation la valeur de la CMI.
Une première série de résultats a été obtenue en utilisant le test en boîte de Pétri vis-à-vis de bactéries non pathogènes issues de la collection de Travaux pratiques du laboratoire de Pathologie Comparée de l'Université de Montpellier (France). Dans cette série, les pseudopeptides des pics 5, 7, 8,10 et 11 ont été testés (Tableau 4).

[8] = tested on: Staphylococcus aureus
[9] = tested on: Staphylococcus epidermidis

Substance | CMI [1] [µg/mL] | CMI [2] | CMI [3] [µg/mL] | CMI [4] | CMI [5] [µg/mL] | CMI [6] | CMI [7] | CMI [8] | CMI [9] [µg/mL]
Composé 10: pseudopeptide du pic n° 10 de Xenorhabdus nematophilus F1; Famille 2: Lys Lys Lys Lys Arg Gly; 1094 Da; structure en Figure 3 (KKKKRG; also: pseudopeptide modifications, not given here) | 15 | 7,5 µg/ml | 15 | 1,5 µg/ml | 200 | 0,75 µg/ml | 30 µg/mL | 7,5 µg/ml | 
Composé 11: pseudopeptide du pic n° 11 de Xenorhabdus nematophilus F1; Famille 1: Lys Lys Lys Lys Lys Gly; 1080 Da; isomère de masse du pic 7 (KKKKKG; also: pseudopeptide modifications, not given here) | 30 | 15 µg/mL | 30 | 1,5 µg/ml | 200 | 0,75 µg/ml | 15 µg/mL | 7,5 µg/ml | 
Polymixine [reference compound] |  | 0,25 µg/ml |  |  | 50 |  | 0,5 µg/ml | 20 µg/mL | 20
